Assay results taken from article PMC3602154 (PLoS ONE, 2013).

What was measured:
[1] = target: NET (norepinephrine transporter) (Homo sapiens, UniProt P23975); experiment: PDSP radioligand binding, norepinephrine transporter; conditions: 10 µM, quadruplicate; read-out: NET Primary Screen inhibition of binding
Description: (§1) [17] and http://pdsp.med.unc.edu/UNC-CH%20Protocol%20Book.pdf.

Sigma2 = Sigma2 (Homo sapiens, UniProt Q5BJF2); experiment: PDSP radioligand binding, Sigma2; conditions: for Ki: Table 2
Description: as §1

Sigma1 = Sigma1 (Homo sapiens, UniProt Q99720); experiment: PDSP radioligand binding, Sigma1; conditions: for inhibition at 10 µM: quadruplicate, read-out: Sigma1 Primary Screen inhibition of binding
Description: as §1

[2] = target: SERT (serotonin transporter) (Homo sapiens, UniProt P31645); experiment: biochemical; assay type: binding
Description: as §1

[3] = target: NMDA Receptor (MK-801 binding site); experiment: PDSP radioligand binding, NMDA receptor; conditions: Table 2; for Ki: read-out: NMDA (Ki) (converted)
Description: as §1

[4] = tested on: dopamine transporter (DAT); conditions: cited from earlier work

Sigma1, sequence (Q99720 whole entry): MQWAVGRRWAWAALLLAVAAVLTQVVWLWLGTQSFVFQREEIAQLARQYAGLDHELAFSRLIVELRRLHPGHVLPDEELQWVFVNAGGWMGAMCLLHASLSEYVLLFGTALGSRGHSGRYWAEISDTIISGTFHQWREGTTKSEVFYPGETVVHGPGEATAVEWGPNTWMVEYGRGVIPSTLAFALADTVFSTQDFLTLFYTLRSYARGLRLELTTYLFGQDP
NET (norepinephrine transporter), sequence (P23975 whole entry, species assumed): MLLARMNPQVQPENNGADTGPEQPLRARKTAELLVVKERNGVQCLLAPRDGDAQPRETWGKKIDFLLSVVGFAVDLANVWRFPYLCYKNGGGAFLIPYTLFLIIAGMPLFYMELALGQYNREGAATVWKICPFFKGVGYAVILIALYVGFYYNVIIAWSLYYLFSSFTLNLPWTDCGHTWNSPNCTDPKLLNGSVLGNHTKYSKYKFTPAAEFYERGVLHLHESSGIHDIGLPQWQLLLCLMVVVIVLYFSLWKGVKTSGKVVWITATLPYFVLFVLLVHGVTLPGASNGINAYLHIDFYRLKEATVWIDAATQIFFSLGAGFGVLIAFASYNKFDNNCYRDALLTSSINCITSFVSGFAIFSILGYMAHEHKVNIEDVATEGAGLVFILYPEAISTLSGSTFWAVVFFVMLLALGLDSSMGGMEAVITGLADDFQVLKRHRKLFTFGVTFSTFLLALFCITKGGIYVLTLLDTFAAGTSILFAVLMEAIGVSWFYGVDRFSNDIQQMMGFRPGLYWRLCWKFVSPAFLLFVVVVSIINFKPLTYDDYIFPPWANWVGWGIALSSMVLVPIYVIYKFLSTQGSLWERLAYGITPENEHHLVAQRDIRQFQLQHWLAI
Sigma2, sequence (Q5BJF2 whole entry): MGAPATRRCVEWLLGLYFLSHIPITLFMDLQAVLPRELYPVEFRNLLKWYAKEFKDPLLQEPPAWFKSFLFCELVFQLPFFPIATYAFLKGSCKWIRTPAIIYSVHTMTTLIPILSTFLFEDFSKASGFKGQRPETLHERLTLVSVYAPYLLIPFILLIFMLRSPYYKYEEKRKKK
SERT (serotonin transporter), sequence (P31645 whole entry, species assumed): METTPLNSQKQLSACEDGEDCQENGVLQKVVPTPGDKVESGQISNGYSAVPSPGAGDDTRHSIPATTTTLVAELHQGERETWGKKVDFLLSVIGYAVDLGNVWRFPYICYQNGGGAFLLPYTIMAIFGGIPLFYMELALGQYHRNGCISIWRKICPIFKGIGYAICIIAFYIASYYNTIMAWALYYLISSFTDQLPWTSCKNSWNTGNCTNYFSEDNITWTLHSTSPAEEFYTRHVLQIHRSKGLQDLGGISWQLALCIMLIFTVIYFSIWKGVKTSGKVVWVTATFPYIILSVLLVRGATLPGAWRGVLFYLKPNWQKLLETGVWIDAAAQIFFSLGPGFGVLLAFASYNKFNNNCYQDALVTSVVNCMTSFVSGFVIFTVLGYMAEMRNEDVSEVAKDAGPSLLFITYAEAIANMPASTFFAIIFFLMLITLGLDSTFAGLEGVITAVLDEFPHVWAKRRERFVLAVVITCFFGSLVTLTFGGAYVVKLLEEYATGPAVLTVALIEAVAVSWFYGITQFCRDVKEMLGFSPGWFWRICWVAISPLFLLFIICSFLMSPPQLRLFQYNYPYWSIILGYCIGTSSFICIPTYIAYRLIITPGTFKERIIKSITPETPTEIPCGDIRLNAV

Structure (SMILES)	inhibition at 10 µM [1]	inhibition at 10 µM (Sigma2; 10 µM, quadruplicate, read-out: Sigma2 Primary Screen inhibition of binding)	effect on sigma2 receptors (Sigma2; tested at 10 µM)	inhibition at 10 µM (Sigma1)	effect on sigma1 receptors (Sigma1; tested at 10 µM)	Ki (Sigma2; Sigma2 (Ki, nM))	Ki (Sigma2; Sigma2 pKi +/− SD)	affinity for the serotonin transporter (SERT), in words [2]	Ki ([2]; Table 2)	NMDA pKi +/− SD [3]	Ki [3]	Ki (Sigma1)	potency at DAT, in words [4]
CNC1(c2ccccc2Cl)CCCCC1=O (racemic) [Ketamine, (RS)-2-(2-chlorophenyl)-2-(methylamino)cyclohexanone, reference compound]	< 50%	< 50%	no significant effect	< 50%	no significant effect								
CCNC1(c2cccc(OC)c2)CCCCC1 [3-MeO-PCE, N-ethyl-1-(3-methoxyphenyl)cyclohexanamine]	< 50%					525 nM	490 nM	submicromolar affinities	0.115 µM	7.22±0.08	0.061 µM	4.52 µM	
c1ccc(C2(N3CCCCC3)CCCCC2)cc1 [Phencyclidine, reference compound]	< 50%			< 50%		136 nM	151 nM				0.059 µM		submicromolar potency
